Measurements: patent US20080248131A1 (Metaproteomics, LLC, priority 2005, published 2008)

Experiments:
[1] = system: IL-6 secretion, 3T3-L1 adipocytes; test: IL-6 secretion from TNFα-treated 3T3-L1 adipocytes; settings: 10 ng TNFα/ml
[2] = system: adiponectin secretion, 3T3-L1 adipocytes; test: Adiponectin secretion in LPS/3T3-L1 adipocytes; format: cell-based, murine
[3] = system: human PI3K-β, PI3K-γ, and PI3K-δ; test: PI3K isoform inhibition (Example 3); format: biochemical; settings: 50 μg/ml
Experimental: Additionally examined was an Acacia nilotica heartwood extract. All compounds were tested at 50 μg/ml. The results are presented graphically as FIG. 3. […] Mg-IAA was approximately 3-fold more inhibitory to PI3K-β than to PI3K-γ or PI3K-δ.

[4] = system: adiponectin secretion, 3T3-L1 adipocytes; test: Adiponectin secretion from TNFα-treated 3T3-L1 adipocytes; format: cell-based, murine; settings: 10 ng TNFα/ml
Experimental: 3T3-L1 cells were seeded at an initial density of 1×10^4 cells/cm^2 in 96-well plates. For two days, the cells were allowed grow to reach confluence. Following confluence, the cells were forced to differentiate into adipocytes by the addition of differentiation medium; this medium consisted of (1) 10% FBS/DMEM (high glucose); (2) 0.5 mM methylisobutylxanthine; (3) 0.5 μM dexamethasone and (4) 10 μg/ml insulin (MDI medium). From Day 3 through Day 5, the medium was changed to post-differentiation medium consisting of 10% FBS in DMEM. […] On Day 6, the supernatant medium was sampled for adiponectin determination.
Statistical Calculations and Interpretation—All assays were preformed in duplicate. […] Differences among the doses and test agents were determined using the Student's t-test without correction for multiple comparisons; the nominal five percent probability of a type I error was selected.

[5] = system: NF-kBp65 nuclear translocation; test: Nuclear NF-kBp65 in TNFα-treated 3T3-L1 adipocytes; format: cell-based, murine; settings: three or 24 hours
Experimental: Cell Culture and Treatment—Following differentiation 3T3-L1 adipocytes were maintained in post-differentiation medium for an additional 40 days. […] Hops derivatives and the positive control pioglitazone were tested at concentrations of 2.5, and 5.0 μg/ml. Test materials were added 1 hour prior to and nuclear extracts were prepared three and 24 hours following treatment with TNFα.
ELISA—3T3-L1 adipocytes were maintained in growth media for 40 days following differentiation. Nuclear NF-kBp65 was determined using the TransAM™ NF-kB kit from Active Motif (Carlsbad, Calif.) was used with no modifications. Jurkat nuclear extracts provided in the kit were derived from cells cultured in medium supplemented with 50 ng/ml TPA (phorbol, 12-myristate, 13 acetate) and 0.5 μM calcium ionophore A23187 for two hours at 37° C. immediately prior to harvesting.
Protein assay—Nuclear protein was quantified using the Active Motif Fluorescent Protein Quantification Kit.

DBA/J mice = test: Collagen induced rheumatoid arthritis murine model, arthritic index; format: in vivo, mouse; settings: 10 mg/kg
Experimental: The mice were injected intradermally on day 0 with a mixture containing 100 μg of type II collagen and 100 μg of Mycobacterium tuberculosis in squalene. A booster injection was repeated on day 21. Mice were examined on days 22-27 for arthritic signs with nonresponding mice removed from the study.
Arthritic symptomology was assessed (scored 0-4) for each paw using a arthritic index as described below. Under this arthritic index 0=no visible signs; 1=edema and/or erythema: single digit; 2=edema and or erythema: two joints; 3=edema and or erythema: more than two joints; and 4=severe arthritis of the entire paw and digits associated with ankylosis and deformity.

[6] = system: adiponectin secretion, 3T3-L1 adipocytes; test: Adiponectin secretion from insulin-resistant 3T3-L1 adipocytes; format: cell-based, murine

COc1ccc2c(c1)c(CC(=O)O)c(C)n2C(=O)c1ccc(Cl)cc1 [indomethacin]
IL-6 secretion in presence of TNFα, in words [1]: no anti-inflammatory effect

O=C(O)c1ccccc1O [salicylic acid]
adiponectin secretion in LPS-treated adipocytes, in words [2]: failed to induce adiponectin secretion

COc1cc(O)c(CC=C(C)C)c(O)c1C(=O)/C=C/c1ccc(O)cc1 [xanthohumol]
effect on PI3K isoforms, in words [3]: more inhibitory to PI3K-γ than to PI3K-β or PI3K-δ

CC(=O)Oc1ccccc1C(=O)O [Aspirin, aspirin]
adiponectin secretion in LPS-treated adipocytes, in words [2]: failed to induce adiponectin secretion

CCc1ccc(CCOc2ccc(CC3SC(=O)NC3=O)cc2)nc1 (centres unmarked) [pioglitazone]
maximal restoration of adiponectin secretion, times the TNFα treatment [4]: 1.47 times | nuclear NF-kBp65, in words [5]: did not inhibit

C[C@]12C=CC(=O)C=C1CC[C@@H]1[C@@H]2[C@@H](O)C[C@@]2(C)[C@H]1CC[C@]2(O)C(=O)CO [prednisolone]
days with significant reduction of arthritic index (DBA/J mice): days 30-42

CC(C)CCC1=C(O)C(C(=O)C(C)C)=C(O)C(CCC(C)C)(CCC(C)C)C1=O [hexahydro colupulone]
concentration of maximal observed adiponectin secretion [6]: 12.5 µg/mL
